Data: patent US20240245677A1, “SELECTED COMPOUNDS FOR TARGETED DEGRADATION OF BRD9” (C4 THERAPEUTICS, INC., priority 2021, published 2024)
Where two headings read alike, the source gives them in different places.

Biological target: T1, BRD4 (Homo sapiens, UniProt O60885)
T1 construct: endogenously expressing BRD4 with HiBiT fusion tag via CRISPR; endogenous in cells; host or cells: HEK293T.92 (made in-house from 293T, ATCC CRL-3216)
Experiment: BRD4 HiBiT degradation assay in HEK293T.92 cells
Type: cell-based
From the text: This assay evaluates the degradation of Bromodomain Containing 4 (BRD4) induced by treatment with Compound 1 as measured by luminescence using Nano-Glo® HiBiT Lytic Assay System in HEK293 cells CRISPR-edited to endogenously express HiBiT tagged BRD4.
Nano-Glo® HiBiT Lytic Assay System was purchased from Promega (Catalog No. N3050, Madison, WI, USA). 293T cells were obtained from ATCC (Catalog No. CRL-3216, Manassas, VA, USA), and maintained in Dulbecco's modified Eagle medium (DMEM) (Catalog No. 12430112, ThermoFisher Scientific, Waltham, MA, USA) supplemented with 10% fetal bovine serum (FBS) (Catalog No. 16000-044, Gibco, Grand Island, NY, USA) at 37° C. in an atmosphere of 5% CO2 in air. The HiBiT polypeptide tag was introduced into the N-terminus of the endogenous BRD4 locus by CRISPR-Cas9 to produce the modified HEK293T.92 cell line. The HiBiT polypeptide allows reconstitution of NanoBiT enzyme following cell lysis and addition of the complementing LgBiT polypeptide that activates substrate to produce a luminescent signal that is directly proportional to the amount of HiBiT-tagged BRD4.
The HEK293T.92 cells were routinely sub-cultured to maintain cell density between 30-80% confluence, not to exceed 20 passages. Cells were washed with PBS pH 7.4 (Catalog No. 10010049, ThermoFisher Scientific, Waltham, MA, USA), trypsinized for 5 minutes at 37° C., and resuspended in fresh growth media without phenol red. An aliquot was diluted 2× with Trypan Blue solution 0.4% (Catalog No. 15250061, ThermoFisher Scientific, Waltham, MA, USA) and cell count determined. Cell concentration was adjusted with growth media without phenol red to 5.0×10^5 cells/mL.
Compound 1 was prepared by dissolving neat compounds in DMSO (Catalog No. D8418, Sigma-Aldrich, Inc., St. Louis, MO, USA) to generate 10 mM stock solution and stored at −20° C. The 10 mM DMSO stock solution of Compound 1 was serially diluted (half log) in DMSO to generate 11-point dose series (10000, 3165, 1000, 316, 100, 31.6, 10, 3.2, 1, 0.32, 0.1 μM) in an acoustic ready 384-well low dead volume microplate (Catalog No. LP-0200, Beckman Coulter Life Sciences, Indianapolis, IN, USA). Using an Echo 550 Acoustic Liquid Handler (Beckman Coulter Life Sciences, Indianapolis, IN, USA), 30 nL of serially diluted compound solutions were dispensed in duplicate to each 384-well TC-treated microplate (Catalog No. 3571, Corning, Glendale, CA, USA). 30 nL DMSO was transferred to all control wells.
30 μL of 293T.92 cells suspended in growth media without phenol red at 5.0×10^5 cells/mL (15000 cells/well) were dispensed using a Multidrop Combi Reagent Dispenser (Catalog No. 5840300, ThermoFisher Scientific, Waltham, MA, USA) to each well of columns 1-23 of 384-well TC-treated microplates containing duplicate concentration range of test compounds and DMSO controls. 30 μL of media was dispensed to column 24 as background positive control (P). Plates were spun briefly at 1000 rpm and cells were incubated at 37° C., 5% CO2 for 24 hours. Final concentration of DMSO was 0.1% for all samples.
Cellular BRD4 protein level was determined based on quantification of HiBiT using Nano-Glo® HiBiT Lytic Assay System (Promega). 30 μL Nano-Glo Lytic Assay reagents were added to each well and luminescence was acquired on EnVision® Multilabel Reader (Catalog No. 2104-0010, Perkin Elmer Inc., Dumfries, VA, USA). Cells treated in the absence of the test compound (0.1% DMSO vehicle) were the negative control (N) and wells containing only media were the positive control (P).
Percent response of compound-treated samples (T) were calculated by normalizing to the DMSO treated negative (N) controls on the same microtiter plate after background (i.e., positive control) signal subtraction:
Curve fit and DC50 (concentration that degrades 50% BRD4) determination was performed by 4 parametric logistic fit analysis using software such as GraphPad Prism software (GraphPad Software, LLC, San Diego, CA, USA). […]

For `COc1cc(-c2cn(C)c(=O)c(C)c2C)cc(OC)c1CN1CC[C@H](N2CCN(c3ccc(N[C@H]4CCC(=O)NC4=O)cc3F)CC2)C(F)(F)C1` [Compound 1, (S)-3-((4-(4-((S)-1-(2,6-dimethoxy-4-(1,4,5-trimethyl-6-oxo-1,6-dihydropyridin-3-yl)benzyl)-3,3-difluoropiperidin-4-yl)piperazin-1-yl)-3-fluorophenyl)amino)-piperidine-2,6-dione], the “% BRD4 Remaining Relative to Vehicle Control at 24 hr, Mean” value (0.101 nM) was 96.1%, the “% BRD4 Remaining Relative to Vehicle Control at 24 hr, Mean” value (0.318 nM) was 96.3% and the “% BRD4 Remaining Relative to Vehicle Control at 24 hr, Mean” value (1.01 nM) was 96.3%. For the same molecule, the “% BRD4 Remaining Relative to Vehicle Control at 24 hr, Mean” value (3.17 nM) was 96.1%, the “% BRD4 Remaining Relative to Vehicle Control at 24 hr, Mean” value (10.0 nM) was 96.0% and the “% BRD4 Remaining Relative to Vehicle Control at 24 hr, Mean” value (31.7 nM) was 96.4%. The “% BRD4 Remaining Relative to Vehicle Control at 24 hr, Mean” value (100 nM) was 95.8%, the “% BRD4 Remaining Relative to Vehicle Control at 24 hr, Mean” value (317 nM) was 92.5% and the “% BRD4 Remaining Relative to Vehicle Control at 24 hr, Mean” value (1000 nM) was 89.2%. For the same molecule, the “% BRD4 Remaining Relative to Vehicle Control at 24 hr, Mean” value (3161 nM) was 84.4%, the “% BRD4 Remaining Relative to Vehicle Control at 24 hr, Mean” value (9990 nM) was 78.1% and the DC50 (BRD4-HiBiT, 293T.92 cells, 24 hours, read-out: Mean DC50) was > 10 µM. For the same molecule, the Emax (BRD4-HiBiT, 293T.92 cells, 24 hours, read-out: Mean Emax (%) ± SD) was 78.1 ± 3.41%, the “effect on the degradation of BRD4” value (concentrations up to 10 μM, 24 hours) was “no significant effect” and the DC50 (summary statement, read-out: DC50 against BRD4) was > 1 µM.
